From patent US20040127361A1 (priority 2003, published 2004)

How the values were obtained:
Type in all cases: in vivo
[1] = test system: Puccinia recondita; experiment: Test B: wheat leaf rust, preventive spray on wheat seedlings; settings: wheat seedlings sprayed to run-off, inoculated following day with spore suspension, saturated atmosphere 20° C. 24 hours then growth chamber 6 days; test concentration not stated
Source text: (§1) General protocol for preparing test suspensions: Test compounds are first dissolved in acetone in an amount equal to 3% of the final volume and then suspended at the desired concentration (in ppm) in acetone and purified water (50/50 mix) containing 250 ppm of the surfactant Trem® 014 (polyhydric alcohol esters). The resulting test suspensions are then used in the following tests. Spraying a 200 ppm test suspension to the point of run-off on the test plants is the equivalent of a rate of 500 g/ha
The test suspension was sprayed to the point of run-off on wheat seedlings. The following day the seedlings were inoculated with a spore suspension of Puccinia recondita (the causal agent of wheat leaf rust) and incubated in a saturated atmosphere at 20° C. for 24 hours, and then moved to a growth chamber at 20° C. for 6 days, after which disease ratings were made.
(§2) Results for Tests A-D are given in Table A. In the table, a rating of 100 indicates 100% disease control and a rating of 0 indicates no disease control (relative to the controls). A dash (-) indicates no test results. ND indicates disease control not determined due to phytotoxicity.

[2] = test system: Erysiphe graminis f sp. tritici; experiment: Test A: wheat powdery mildew, preventive spray on wheat seedlings; settings: wheat seedlings sprayed to run-off, inoculated following day with spore dust, 20° C. for 7 days; test concentration not stated
Source text: as §1
The test suspension was sprayed to the point of run-off on wheat seedlings. The following day the seedlings were inoculated with a spore dust of Erysiphe graminis f sp. tritici, (the causal agent of wheat powdery mildew) and incubated in a growth chamber at 20° C. for 7 days, after which disease ratings were made.
as §2

[3] = test system: Phytophthora infestans; settings: tomato seedlings sprayed to run-off, inoculated following day with spore suspension, saturated atmosphere 20° C. 24 hours then growth chamber 5 days; test concentration not stated

| Compound | Test B disease control rating (100 = 100% disease control, 0 = no disease control relative to the controls) [1] [%] | Test A disease control rating (100 = 100% disease control, 0 = no disease control relative to the controls) [2] [%] | Test C disease control rating (100 = 100% disease control, 0 = no disease control relative to the controls) [3] [%] |
| --- | --- | --- | --- |
| Cc1cnc2c(c1)CCCC2NC(=O)c1c(Cl)cc(Cl)cc1Cl (stereo not drawn) [Compound A6] | 9 | 0 | 82 |
| Cc1cnc2c(c1)CCCC2NC(=O)c1cccnc1O (stereo not drawn) [Compound B8] | 19 | 0 | 47 |
| COc1cc(C(=O)NC2CCCc3cc(C)cnc32)cc(Cl)n1 (stereo not drawn) [Compound C2, 2-chloro-6-methoxy-N-(5,6,7,8-tetrahydro-3-methyl-8-quinolinyl)4-pyridinecarboxamide] | 28 | 95 | 18 |
| Cc1cnc2c(c1)CCCC2NC(=O)c1c(F)cccc1Cl (stereo not drawn) [Compound A9] | 38 | 0 | 97 |
| Cc1cnc2c(c1)CCCC2NC(=O)c1ccnc(Cl)c1 (stereo not drawn) [Compound C1] | 55 | 0 | 84 |
| Cc1cnc2c(c1)CCCC2NC(=O)c1ccccc1C (stereo not drawn) [Compound A7] | 45 | 0 | 75 |
| Cc1cnc2c(c1)CCCC2NC(=O)c1cccnc1Nc1cccc(C(F)(F)F)c1 (stereo not drawn) [Compound B1] | 19 | 0 | 16 |
| Cc1cnc2c(c1)CCCC2NC(=O)c1ccccc1C(F)(F)F (stereo not drawn) [Compound A3] | 41 | 0 | 47 |
| Cc1cnc2c(c1)CCCC2NC(=O)c1c(F)ccc(F)c1F (stereo not drawn) [Compound A8, 2,3,6-trifluoro-N-(5,6,7,8-tetrahydro-3-methyl-8-quinolinyl)benzamide] | 55 | 0 | 100 |
| Cc1cnc2c(c1)CCCC2NC(=O)c1c(Cl)cccc1Cl (stereo not drawn) [Compound A1, 2,6-dichloro-N-(5,6,7,8-tetrahydro-3-methyl-8-quinolinyl)benzamide] | 84 | 0 | 100 |
| Cc1cnc2c(c1)CCCC2NC(=O)c1ccccc1Cl (stereo not drawn) [Compound A5] | 55 | 0 | 46 |
| Cc1cnc2c(c1)CCCC2NC(=O)c1ccc(Br)cc1 (stereo not drawn) [Compound A2] | 18 | 0 | 5 |
| CSc1ncccc1C(=O)NC1CCCc2cc(C)cnc21 (stereo not drawn) [Compound B3] | 23 | 0 | 56 |
| Cc1cnc2c(c1)CCCC2NC(=O)c1ccc(Cl)nc1 (stereo not drawn) [Compound B4] | 9 | 0 | 32 |
| Cc1cnc2c(c1)CCCC2NC(=O)c1c(F)cccc1F (stereo not drawn) [Compound A4] | 0 | 0 | 90 |
